Assay results from the NIST ThermoML archive (doi:10.1016/j.jct.2015.12.017).
± gives the expanded uncertainty stated by the source.

Assay: molar heat capacity at constant pressure
Details: 101.33 kPa, Crystal 4, Vacuum adiabatic calorimetry

O=P([O-])([O-])[O-].[Co+2].[Cs+] [cesium cobalt(II) phosphate]
Details	molar heat capacity at constant pressure [J/K/mol]
5 K	1.355 ± 0.033
6 K	2.328 ± 0.05
6.05 K	2.228 ± 0.05
6.49 K	2.594 ± 0.058
6.93 K	2.96 ± 0.067
7 K	2.893 ± 0.067
7.36 K	3.11 ± 0.067
7.78 K	3.317 ± 0.075
8 K	3.492 ± 0.075
8.19 K	3.633 ± 0.083
8.62 K	4.041 ± 0.091
9 K	4.091 ± 0.091
9.08 K	4.232 ± 0.091
9.58 K	4.457 ± 0.091
10 K	4.689 ± 0.1
10.1 K	4.822 ± 0.1
10.63 K	5.13 ± 0.11
11.16 K	5.471 ± 0.12
11.67 K	5.737 ± 0.12
12.16 K	5.97 ± 0.12
13 K	6.635 ± 0.14
14.27 K	7.807 ± 0.17
15 K	8.29 ± 0.17
15.59 K	8.921 ± 0.067
16.94 K	10.37 ± 0.075
18.33 K	11.79 ± 0.083
19.77 K	13.05 ± 0.091
20 K	13.44 ± 0.091
20.92 K	14.28 ± 0.1
22.76 K	16.17 ± 0.11
24.48 K	17.93 ± 0.12
25 K	18.57 ± 0.12
26.27 K	19.85 ± 0.12
28.12 K	21.62 ± 0.12
30 K	23.49 ± 0.13
30.03 K	23.55 ± 0.13
32 K	25.54 ± 0.14
34.02 K	27.66 ± 0.16
35 K	28.29 ± 0.16
36.12 K	29.27 ± 0.17
37.97 K	30.99 ± 0.17
40 K	33.01 ± 0.18
40.47 K	33.46 ± 0.12
42.73 K	35.36 ± 0.13
45 K	37.42 ± 0.14
45.02 K	37.41 ± 0.14
47.34 K	39.6 ± 0.15
49.71 K	41.16 ± 0.15
50 K	41.41 ± 0.15
52.12 K	42.9 ± 0.16
54.56 K	44.8 ± 0.17
57.05 K	46.5 ± 0.17
59.55 K	48 ± 0.17
60 K	48.39 ± 0.17
62.07 K	49.7 ± 0.18
64.59 K	51.3 ± 0.18
67.13 K	53 ± 0.19
69.7 K	54.4 ± 0.19
70 K	54.75 ± 0.2
72.02 K	56.1 ± 0.2
74.09 K	57.4 ± 0.21
76.18 K	58.59 ± 0.21
78.27 K	59.6 ± 0.21
80 K	60.56 ± 0.22
80.36 K	60.71 ± 0.22
80.84 K	60.8 ± 0.22
82.45 K	61.91 ± 0.22
82.83 K	62.06 ± 0.22
84.54 K	62.83 ± 0.22
85.25 K	63.18 ± 0.22
86.65 K	64.17 ± 0.22
87.47 K	64.52 ± 0.22
89.36 K	65.58 ± 0.23
89.69 K	65.7 ± 0.23
90 K	65.75 ± 0.27
91.92 K	66.67 ± 0.27
94.14 K	67.78 ± 0.27
96.37 K	69.09 ± 0.28
98.6 K	70.17 ± 0.28
100 K	70.96 ± 0.28
100.83 K	71.3 ± 0.29
103.07 K	72.37 ± 0.29
105.3 K	73.45 ± 0.29
107.54 K	74.66 ± 0.3
109.78 K	75.44 ± 0.3
110 K	75.59 ± 0.3
111.8 K	76.31 ± 0.3
114.54 K	77.64 ± 0.31
116.74 K	78.51 ± 0.31
118.98 K	79.46 ± 0.31
120 K	79.79 ± 0.31
121.23 K	80.28 ± 0.32
123.47 K	81.37 ± 0.32
125.71 K	82.23 ± 0.32
127.95 K	83.09 ± 0.32
130 K	83.89 ± 0.33
130.19 K	83.89 ± 0.33
132.43 K	84.89 ± 0.33
134.67 K	85.72 ± 0.33
136.91 K	86.55 ± 0.33
139.14 K	87.39 ± 0.33
140 K	87.97 ± 0.33
141.38 K	88.3 ± 0.33
143.49 K	89.3 ± 0.33
145.85 K	90.21 ± 0.33
148.08 K	91.21 ± 0.33
150 K	91.96 ± 0.33
150.3 K	91.79 ± 0.33
151.78 K	92.54 ± 0.33
152.91 K	93.04 ± 0.33
153.96 K	93.62 ± 0.33
155.41 K	94.12 ± 0.33
157.59 K	94.87 ± 0.33
159.03 K	95.37 ± 0.33
160 K	95.78 ± 0.33
161.93 K	96.28 ± 0.33
163.35 K	96.95 ± 0.33
164.07 K	97.28 ± 0.33
165.61 K	97.86 ± 0.33
166.94 K	98.53 ± 0.33
167.88 K	98.78 ± 0.33
170 K	99.36 ± 0.33
170.03 K	99.61 ± 0.33
172.23 K	100.19 ± 0.33
174.44 K	100.85 ± 0.33
176.64 K	101.6 ± 0.42
178.83 K	102.35 ± 0.42
180 K	102.68 ± 0.42
181.02 K	103.1 ± 0.42
183.21 K	103.93 ± 0.42
185.4 K	104.51 ± 0.42
187.59 K	105.09 ± 0.42
189.78 K	105.59 ± 0.42
190 K	105.76 ± 0.42
191.97 K	106.18 ± 0.42
194.89 K	106.84 ± 0.42
196.33 K	107.26 ± 0.42
198.51 K	107.92 ± 0.42
200 K	108.59 ± 0.42
200.68 K	108.67 ± 0.42
202.82 K	109.34 ± 0.42
204.99 K	109.92 ± 0.42
207.16 K	110.5 ± 0.42
209.32 K	111.16 ± 0.42
210 K	111.25 ± 0.42
211.49 K	111.66 ± 0.42
213.66 K	112.25 ± 0.42
215.82 K	112.83 ± 0.42
217.98 K	113.49 ± 0.42
220 K	113.83 ± 0.42
220.14 K	114.07 ± 0.42
222.3 K	114.66 ± 0.42
224.46 K	115.07 ± 0.42
226.62 K	115.82 ± 0.42
228.77 K	116.15 ± 0.42
230 K	116.49 ± 0.42
230.93 K	116.65 ± 0.42
233.08 K	117.32 ± 0.42
235.23 K	117.73 ± 0.42
237.35 K	118.4 ± 0.42
239.5 K	118.98 ± 0.42
240 K	119.23 ± 0.42
241.65 K	119.56 ± 0.42
243.79 K	120.23 ± 0.42
245.94 K	120.81 ± 0.42
248.09 K	121.39 ± 0.42
250 K	121.97 ± 0.42
250.23 K	121.97 ± 0.42
252.37 K	122.72 ± 0.42
254.5 K	123.3 ± 0.42
256.64 K	123.8 ± 0.42
258.77 K	124.3 ± 0.42
260 K	124.72 ± 0.42
260.91 K	124.88 ± 0.42
263.04 K	125.38 ± 0.42
265.17 K	126.05 ± 0.42
267.3 K	126.71 ± 0.42
269.42 K	127.29 ± 0.42
270 K	127.29 ± 0.42
271.51 K	127.71 ± 0.42
273.15 K	128.04 ± 0.42
273.63 K	128.13 ± 0.42
276.36 K	128.79 ± 0.42
278.4 K	129.21 ± 0.42
280 K	129.62 ± 0.42
280.51 K	129.79 ± 0.42
282.62 K	130.29 ± 0.5
284.72 K	130.62 ± 0.5
286.82 K	131.12 ± 0.5
288.92 K	131.62 ± 0.5
290 K	131.78 ± 0.5
291.02 K	132.2 ± 0.5
293.09 K	132.62 ± 0.5
295.18 K	133.03 ± 0.5
297.25 K	133.53 ± 0.5
298.15 K	133.7 ± 0.5
299.32 K	134.03 ± 0.5
300 K	134.11 ± 0.5
301 K	134.69 ± 0.5
301.38 K	134.69 ± 0.5
302.98 K	135.36 ± 0.5
303.43 K	135.36 ± 0.5
